Assays:
[1] = target: T1, dopamine uptake, rat reuptake transporter (synaptosomes from male Wistar rat striatum) (Rattus norvegicus, UniProt P23977); assay: Dopamine functional uptake assay for rat reuptake transporter (synaptosomes); type: biochemical; details: for IC50: rat synaptosomes, [3H]-dopamine uptake, read-out: Inhibition of monoamine uptake, Rat DA, IC50
T1 construct: synaptosomes isolated in a 0.32 M sucrose buffer from a male Wistar rat striatum; from tissue; host or cells: male Wistar rat striatum synaptosomes
T1 sequence (P23977 whole entry): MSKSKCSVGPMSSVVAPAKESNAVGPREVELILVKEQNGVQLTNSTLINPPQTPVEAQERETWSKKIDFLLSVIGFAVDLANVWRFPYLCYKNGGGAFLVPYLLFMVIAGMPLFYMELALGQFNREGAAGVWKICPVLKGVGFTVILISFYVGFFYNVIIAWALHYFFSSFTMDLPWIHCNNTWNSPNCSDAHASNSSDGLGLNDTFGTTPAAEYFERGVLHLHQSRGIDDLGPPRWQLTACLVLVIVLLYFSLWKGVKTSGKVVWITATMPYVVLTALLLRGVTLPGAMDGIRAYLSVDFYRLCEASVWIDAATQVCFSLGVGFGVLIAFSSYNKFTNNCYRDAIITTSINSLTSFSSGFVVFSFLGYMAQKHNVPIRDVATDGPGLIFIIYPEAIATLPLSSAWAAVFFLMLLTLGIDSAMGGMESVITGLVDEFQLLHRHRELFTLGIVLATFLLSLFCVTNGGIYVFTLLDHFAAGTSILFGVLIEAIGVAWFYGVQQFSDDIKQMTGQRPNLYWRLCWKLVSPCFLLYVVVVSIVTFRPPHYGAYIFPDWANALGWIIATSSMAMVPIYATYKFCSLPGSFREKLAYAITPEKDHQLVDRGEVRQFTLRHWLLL
Procedure: (§1) The concentrations of radioligand employed in the assays were at or below the KM for the monoamine substrates with their cognate transporters. Compounds were tested at 5 to 10 different concentrations in duplicate in order to obtain full inhibition curves.
Quantification of dopamine uptake was performed using synaptosomes isolated in a 0.32 M sucrose buffer from a male Wistar rat striatum. The uptake of radiolabelled dopamine by synaptosomes (20 μg of proteins/point) was allowed by incubating them for 15 minutes at 37° C. in the presence of test compounds and [^3H]-dopamine (0.1 μCi/point). The experiment was performed in a deep well.
Synaptosomes and [^3H]-dopamine were prepared in a Krebs buffer pH 7.4 containing 25 mM NaHCO3, 11 mM glucose and 50 μM ascorbic acid. This incubation buffer was oxygenated for 5 minutes before incubation. Basal control was incubated for 15 minutes at 4° C. in order to avoid any uptake. Following this incubation, the uptake was stopped by filtration through a unifilter 96-wells GFB Packard plate washed with Krebs buffer containing 25 mM NaHCO3in order to eliminate free [^3H]-dopamine. The radioactivity associated to the synaptosomes retained onto the unifilter corresponding to the uptake was then measured with a microplate scintillation counter (Topcount, Packard) using a scintillation fluid.

[2] = target: norepinephrine uptake, rat reuptake transporter (synaptosomes from male Wistar rat hypothalamus) (Rattus norvegicus, UniProt Q63380); assay: Norepinephrine functional uptake assay for rat reuptake transporter (synaptosomes); type: biochemical; details: [3H]-norepinephrine uptake, read-out: Inhibition of monoamine uptake, Rat NE, IC50
Chain of norepinephrine uptake, rat reuptake transporter (synaptosomes from male Wistar rat hypothalamus) (Q63380 1-617): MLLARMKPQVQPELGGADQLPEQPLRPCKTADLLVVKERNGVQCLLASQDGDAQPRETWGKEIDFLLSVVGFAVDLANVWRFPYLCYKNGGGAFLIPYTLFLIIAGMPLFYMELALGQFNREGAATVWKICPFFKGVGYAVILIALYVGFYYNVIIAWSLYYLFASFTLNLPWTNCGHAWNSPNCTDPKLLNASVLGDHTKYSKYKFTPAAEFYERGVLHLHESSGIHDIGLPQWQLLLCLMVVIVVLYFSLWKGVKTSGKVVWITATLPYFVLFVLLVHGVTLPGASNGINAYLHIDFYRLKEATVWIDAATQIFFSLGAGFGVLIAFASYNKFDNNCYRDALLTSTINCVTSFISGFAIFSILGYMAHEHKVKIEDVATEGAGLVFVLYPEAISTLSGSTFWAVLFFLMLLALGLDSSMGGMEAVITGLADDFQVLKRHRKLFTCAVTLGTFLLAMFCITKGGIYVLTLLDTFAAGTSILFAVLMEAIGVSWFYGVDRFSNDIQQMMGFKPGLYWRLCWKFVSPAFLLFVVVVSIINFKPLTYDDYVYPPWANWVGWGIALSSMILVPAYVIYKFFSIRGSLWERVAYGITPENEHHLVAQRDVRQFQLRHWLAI
Procedure: as §1
Quantification of norepinephrine uptake was performed using synaptosomes isolated in a 0.32 M sucrose buffer from a male Wistar rat hypothalamus. The uptake of radiolabelled norepinephrine by synaptosomes (100 μg of proteins/point) was allowed by incubating them for 20 minutes at 37° C. in presence of test compounds and [^3H]-norepinephrine (0.1 μCi/point). The experiment was performed in a deep well.
Synaptosomes and [^3H]-norepinephrine were prepared in a Krebs buffer pH 7.4 containing 25 mM NaHCO3, 11 mM glucose and 50 μM ascorbic acid. This incubation buffer was oxygenated for 5 minutes before incubation. Basal control was incubated for 20 minutes at 4° C. in order to avoid any uptake. Following this incubation, the uptake was stopped by filtration through a unifilter 96-wells GFB. Packard plate washed with Krebs buffer containing 25 mM NaHCO3 in order to eliminate the free [^3H]-norepinephrine. The radioactivity associated to the synaptosomes retained onto the unifilter corresponding to the uptake was then measured with a microplate scintillation counter (Topcount, Packard) using a scintillation fluid.

[3] = target: recombinant human dopamine transporter expressed in CHO-K1 cells (Homo sapiens, UniProt Q01959)
Chain of recombinant human dopamine transporter expressed in CHO-K1 cells (Q01959 whole entry): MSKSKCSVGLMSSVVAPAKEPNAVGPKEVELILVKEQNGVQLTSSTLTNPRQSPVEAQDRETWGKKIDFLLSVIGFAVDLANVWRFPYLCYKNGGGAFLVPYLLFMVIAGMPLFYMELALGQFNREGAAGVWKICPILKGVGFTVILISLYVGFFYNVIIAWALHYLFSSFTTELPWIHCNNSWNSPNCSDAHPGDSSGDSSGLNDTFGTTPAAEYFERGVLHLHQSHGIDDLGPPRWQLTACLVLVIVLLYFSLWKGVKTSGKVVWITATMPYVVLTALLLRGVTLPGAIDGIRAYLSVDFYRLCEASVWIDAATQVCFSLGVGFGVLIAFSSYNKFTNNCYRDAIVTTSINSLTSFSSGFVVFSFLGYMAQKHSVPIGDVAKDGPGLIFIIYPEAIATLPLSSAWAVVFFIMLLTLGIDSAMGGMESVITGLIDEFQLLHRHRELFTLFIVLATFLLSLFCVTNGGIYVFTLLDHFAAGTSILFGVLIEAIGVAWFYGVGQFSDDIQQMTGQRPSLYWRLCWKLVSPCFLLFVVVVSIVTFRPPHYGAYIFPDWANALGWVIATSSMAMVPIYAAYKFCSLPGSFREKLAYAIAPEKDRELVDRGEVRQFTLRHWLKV
Procedure: as §1
Test compound and/or vehicle was preincubated with cells (4×10^5/ml) in modified Tris-HEPES buffer pH 7.1 for 20 minutes at 25° C. and 50 nM [^3H]Dopamine was then added for an additional 10 minute incubation period. A lysate was obtained from solubilized cells and the amount of tritium in the lysate was measured using a liquid scintillation counter to determine [^3H]Dopamine uptake. Reduction of [^3H]Dopamine uptake by 50 percent or more (≧50%) relative to 10 μM nomifensine indicates significant inhibitory activity.

[4] = target: 5-HT uptake, rat reuptake transporter (synaptosomes from male Wistar rat cortex) (Rattus norvegicus, UniProt P31652); details: at a 10 μM concentration
Chain of 5-HT uptake, rat reuptake transporter (synaptosomes from male Wistar rat cortex) (P31652 whole entry): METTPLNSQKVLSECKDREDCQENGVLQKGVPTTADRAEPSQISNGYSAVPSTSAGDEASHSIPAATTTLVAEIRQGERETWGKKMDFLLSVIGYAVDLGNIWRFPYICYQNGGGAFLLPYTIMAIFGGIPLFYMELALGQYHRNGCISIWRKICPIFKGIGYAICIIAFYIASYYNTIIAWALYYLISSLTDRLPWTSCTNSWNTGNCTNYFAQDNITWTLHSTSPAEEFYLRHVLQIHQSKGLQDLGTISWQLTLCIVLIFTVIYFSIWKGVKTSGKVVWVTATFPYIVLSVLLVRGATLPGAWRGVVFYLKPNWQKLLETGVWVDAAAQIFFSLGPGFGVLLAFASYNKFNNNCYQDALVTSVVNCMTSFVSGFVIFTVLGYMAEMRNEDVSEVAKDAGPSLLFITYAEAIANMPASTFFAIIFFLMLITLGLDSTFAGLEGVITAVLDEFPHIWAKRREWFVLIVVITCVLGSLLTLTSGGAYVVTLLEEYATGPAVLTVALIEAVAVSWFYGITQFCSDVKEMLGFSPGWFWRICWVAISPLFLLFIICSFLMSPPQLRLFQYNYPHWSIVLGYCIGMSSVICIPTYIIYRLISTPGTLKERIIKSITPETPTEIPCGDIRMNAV
Procedure: as §1
Quantification of 5HT uptake was performed using synaptosomes isolated in a 0.32M sucrose buffer from a male Wistar rat cortex. The uptake of radiolabelled 5-HT by synaptosomes (100 μg of proteins/point) was allowed by incubating them in a well for 15 min at 37° C. in presence of test compounds and [^3H]5-hydroxytryptamine (0.1 μCi/point).
Synaptosomes and [^3H]5-hydroxytryptamine were prepared in a Krebs buffer pH 7.4 containing 25 mM NaHCO3, 11 mM mM glucose and 50 μM ascorbic acid. This incubation buffer was oxygenated during 5 minutes before incubation. Basal control was incubated for 15 minutes at 4° C. in order to avoid any uptake. […] The radioactivity associated to the synaptosomes retained on the unifilter corresponding to the uptake was then measured with a microplate scintillation counter (Topcount, Packard) using a scintillation fluid. Nonspecific binding was measured in the presence of an excess of cold, unlabeled ligand. […]

SMILES | IC50 [1] | IC50 [2] | Inhibition of functional reuptake, Human DA (IC50 not given) [3] | Inhibition of functional reuptake, Rat DA (IC50 not given) ([1]; at a 10 μM concentration) | Inhibition of functional reuptake, Rat 5-HT (IC50 not given) [4]
CN(C)CC(c1ccc(O)cc1)C1(O)CCCCC1 (single isomer, unassigned; (-)) [(−)-O-desmethylvenlafaxine] | 5700 nM | 430 nM | – | – | –
CN(C)CC(c1ccc(O)cc1)C1(O)CCCCC1 (racemic) [Racemic O-desmethylvenlafaxine, O-desmethylvenlafaxine] | 7500 nM | 1500 nM | — (key: — indicates less than 50% inhibition of functional reuptake at a 10 μM concentration.) | – | –
CN(C)CC(c1ccc(O)cc1)C1(O)CCCCC1 (single isomer, unassigned; (+)) [(+)-O-desmethylvenlafaxine] | – | 1700 nM | — (key: — indicates less than 50% inhibition of functional reuptake at a 10 μM concentration.) | — (— indicates less than 50% inhibition of functional reuptake at a 10 μM concentration.) | — (— indicates less than 50% inhibition of functional reuptake at a 10 μM concentration.)

Source: patent US20150196531A1, “Methods and Compositions For Treating Sleep-Related Breathing Disorders” (Sunovion Pharmaceuticals Inc., priority 2007, published 2015)
